Laboratory results as given in patent USRE48335E1, “Polymyxin derivatives as antimicrobial compounds” (priority 2014, dated 2020).
In brackets after ≈: the same amount, converted by molar mass. Positions of bridges follow the written chain, without caps; N, C: chain ends. Non-standard residues stand in square brackets, D forms with d. Residues, ends and D or L forms follow the SMILES beside them. *: point of attachment. Lauroyl = CCCCCCCCCCCC(=O)*; Decanoyl = CCCCCCCCCC(=O)*; Nonanoyl = CCCCCCCCC(=O)*; Octanoyl = CCCCCCCC(=O)*; Orn = NCCC[C@H](N)C(=O)O; Dab = NCC[C@H](N)C(=O)O; Dap = NC[C@H](N)C(=O)O

How the values were obtained:
[1] = tested on: Acinetobacter baumannii
Procedure: (§1) MICs of the lipopeptides (trifluoroacetic acid salt, TFA) were determined by broth microdilution in cation-adjusted Mueller-Hinton broth (CAMHB) (Oxoid Australia, Thebarton, SA, Australia) according to Clinical and Laboratory Standards Institute standards (Clinical and Laboratory Standards Institute. Performance standards for antimicrobial susceptibility testing; eighteenth informational supplement M100-S18. Wayne, Pa., 2008). Polymyxin B (sulphate) was employed as control. […]

[2] = tested on: Pseudomonas aeruginosa
Procedure: as §1

[3] = tested on: Enterobacter cloacae
Procedure: as §1

| SMILES | Minimum inhibitory concentration, Ab A ATCC 17978 [1] | Minimum inhibitory concentration, Ab ATCC 19606 [1] | Minimum inhibitory concentration, Ab FADDI-AB034 [1] | Minimum inhibitory concentration, Pa ATCC 27853 [2] | Minimum inhibitory concentration, Pa FADDI-PA022 [2] | Minimum inhibitory concentration, Pa FADDI-PA025 [2] | Minimum inhibitory concentration, Ec FADDI-EC001 [3] | Minimum inhibitory concentration, Ec FADDI-EC003 [3] | Minimum inhibitory concentration, Ec FADDI-EC006 [3] |
| --- | --- | --- | --- | --- | --- | --- | --- | --- | --- |
| CCCCCCCCC(=O)N[C@@H](CCN)C(=O)N[C@H](C(=O)N[C@H](CO)C(=O)N[C@H]1CCNC(=O)[C@H]([C@@H](C)O)NC(=O)[C@H](CCN)NC(=O)[C@H](CCN)NC(=O)[C@H]([C@@H](C)O)NC(=O)[C@@H](CC(C)C)NC(=O)[C@H](CCN)NC1=O)[C@@H](C)O [Compound 17] (Nonanoyl-[Dab]T[dS][Dab][Dab][dL]T[Dab][Dab]T; lactam 4-C) | <0.125 µg/mL | <0.125 µg/mL | 0.25 µg/mL (≈ 0.218 µM) | 2 µg/mL (≈ 1.75 µM) | 4 µg/mL (≈ 3.5 µM) | 16 µg/mL (≈ 14 µM) | 0.25 µg/mL (≈ 0.218 µM) | 0.25 µg/mL (≈ 0.218 µM) | 0.5 µg/mL (≈ 0.437 µM) |
| CCCCCCCCCCCC(=O)N[C@@H](CCN)C(=O)N[C@H](C(=O)N[C@@H](CCN)C(=O)N[C@H]1CCNC(=O)[C@H]([C@@H](C)O)NC(=O)[C@H](CCN)NC(=O)[C@H](CCN)NC(=O)[C@H]([C@@H](C)O)NC(=O)[C@@H](CC(C)C)NC(=O)[C@H](CCN)NC1=O)[C@@H](C)O [Compound 28] (Lauroyl-[Dab]T[Dab][Dab][Dab][dL]T[Dab][Dab]T; lactam 4-C) | 2 µg/mL (≈ 1.67 µM) | 2 µg/mL (≈ 1.67 µM) | 1 µg/mL (≈ 0.834 µM) | 2 µg/mL (≈ 1.67 µM) | 4 µg/mL (≈ 3.33 µM) | 4 µg/mL (≈ 3.33 µM) | 0.5 µg/mL (≈ 0.417 µM) | 0.5 µg/mL (≈ 0.417 µM) | 0.5 µg/mL (≈ 0.417 µM) |
| CCCCCCCC(=O)N[C@@H](CN)C(=O)N[C@H](C(=O)N[C@@H](CCN)C(=O)N[C@H]1CCNC(=O)[C@H]([C@@H](C)O)NC(=O)[C@H](CCN)NC(=O)[C@H](CCN)NC(=O)[C@H]([C@@H](C)O)NC(=O)[C@@H](CC(C)C)NC(=O)[C@H](CCN)NC1=O)[C@@H](C)O [Compound 31] (Octanoyl-[Dap]T[Dab][Dab][Dab][dL]T[Dab][Dab]T; lactam 4-C) | 4 µg/mL (≈ 3.54 µM) | 4 µg/mL (≈ 3.54 µM) | 2 µg/mL (≈ 1.77 µM) | 0.5 µg/mL (≈ 0.443 µM) | 0.5 µg/mL (≈ 0.443 µM) | 16 µg/mL (≈ 14.2 µM) | <0.125 µg/mL | 0.25 µg/mL (≈ 0.221 µM) | 0.5 µg/mL (≈ 0.443 µM) |
| CCCCCCCC(=O)N[C@@H](CCCN)C(=O)N[C@H](C(=O)N[C@@H](CCN)C(=O)N[C@H]1CCNC(=O)[C@H]([C@@H](C)O)NC(=O)[C@H](CCN)NC(=O)[C@H](CCN)NC(=O)[C@H]([C@@H](C)O)NC(=O)[C@@H](CC(C)C)NC(=O)[C@H](CCN)NC1=O)[C@@H](C)O [Compound 32] (Octanoyl-[Orn]T[Dab][Dab][Dab][dL]T[Dab][Dab]T; lactam 4-C) | >32 µg/mL | >32 µg/mL | >32 µg/mL | >32 µg/mL | 1 µg/mL (≈ 0.864 µM) | >32 µg/mL | 1 µg/mL (≈ 0.864 µM) | 1 µg/mL (≈ 0.864 µM) | >32 µg/mL |
| CCCCCCCC(=O)N[C@@H](CCN)C(=O)N[C@H](C(=O)N[C@@H](CCCN)C(=O)N[C@H]1CCNC(=O)[C@H]([C@@H](C)O)NC(=O)[C@H](CCN)NC(=O)[C@H](CCN)NC(=O)[C@H]([C@@H](C)O)NC(=O)[C@@H](CC(C)C)NC(=O)[C@H](CCN)NC1=O)[C@@H](C)O [Compound 34] (Octanoyl-[Dab]T[Orn][Dab][Dab][dL]T[Dab][Dab]T; lactam 4-C) | 2 µg/mL (≈ 1.73 µM) | 2 µg/mL (≈ 1.73 µM) | 2 µg/mL (≈ 1.73 µM) | 1 µg/mL (≈ 0.864 µM) | 0.5 µg/mL (≈ 0.432 µM) | >32 µg/mL | <0.125 µg/mL | <0.125 µg/mL | 4 µg/mL (≈ 3.46 µM) |
| CCCCCCCC(=O)N[C@@H](CCN)C(=O)N[C@H](C(=O)N[C@@H](CN)C(=O)N[C@H]1CCNC(=O)[C@H]([C@@H](C)O)NC(=O)[C@H](CCN)NC(=O)[C@H](CCN)NC(=O)[C@H](C(C)C)NC(=O)[C@@H](CC(C)C)NC(=O)[C@H](CCN)NC1=O)[C@@H](C)O [Compound 36] (Octanoyl-[Dab]T[Dap][Dab][Dab][dL]V[Dab][Dab]T; lactam 4-C) | 0.5 µg/mL (≈ 0.443 µM) | 0.25 µg/mL (≈ 0.222 µM) | 0.5 µg/mL (≈ 0.443 µM) | 1 µg/mL (≈ 0.887 µM) | 1 µg/mL (≈ 0.887 µM) | 4 µg/mL (≈ 3.55 µM) | 0.25 µg/mL (≈ 0.222 µM) | <0.125 µg/mL | 0.25 µg/mL (≈ 0.222 µM) |
| CCCCCCCCCC(=O)N[C@@H](CCN)C(=O)N[C@H](C(=O)N[C@@H](CN)C(=O)N[C@H]1CCNC(=O)[C@H]([C@@H](C)O)NC(=O)[C@H](CCN)NC(=O)[C@H](CCN)NC(=O)[C@H]([C@@H](C)O)NC(=O)[C@@H](CC(C)C)NC(=O)[C@H](CCN)NC1=O)[C@@H](C)O [Compound 37] (Decanoyl-[Dab]T[Dap][Dab][Dab][dL]T[Dab][Dab]T; lactam 4-C) | 0.5 µg/mL (≈ 0.432 µM) | 0.25 µg/mL (≈ 0.216 µM) | 0.25 µg/mL (≈ 0.216 µM) | 1 µg/mL (≈ 0.864 µM) | 0.5 µg/mL (≈ 0.432 µM) | 2 µg/mL (≈ 1.73 µM) | 0.5 µg/mL (≈ 0.432 µM) | 4 µg/mL (≈ 3.46 µM) | 0.5 µg/mL (≈ 0.432 µM) |
| CCCCCCCCCC(=O)N[C@@H](CCN)C(=O)N[C@H](C(=O)N[C@@H](CN)C(=O)N[C@H]1CCNC(=O)[C@H]([C@@H](C)O)NC(=O)[C@H](CCN)NC(=O)[C@H](CCN)NC(=O)[C@H](C)NC(=O)[C@@H](CC(C)C)NC(=O)[C@H](CCN)NC1=O)[C@@H](C)O [Compound 38] (Decanoyl-[Dab]T[Dap][Dab][Dab][dL]A[Dab][Dab]T; lactam 4-C) | 0.5 µg/mL (≈ 0.443 µM) | 0.5 µg/mL (≈ 0.443 µM) | 1 µg/mL (≈ 0.887 µM) | 1 µg/mL (≈ 0.887 µM) | 2 µg/mL (≈ 1.77 µM) | 2 µg/mL (≈ 1.77 µM) | 0.5 µg/mL (≈ 0.443 µM) | 0.5 µg/mL (≈ 0.443 µM) | 1 µg/mL (≈ 0.887 µM) |
| CCCCCCCCCC(=O)N[C@@H](CCN)C(=O)N[C@H](C(=O)N[C@@H](CN)C(=O)N[C@H]1CCNC(=O)[C@H]([C@@H](C)O)NC(=O)[C@H](CCN)NC(=O)[C@H](CCN)NC(=O)[C@H](C(C)C)NC(=O)[C@@H](CC(C)C)NC(=O)[C@H](CCN)NC1=O)[C@@H](C)O [Compound 39] (Decanoyl-[Dab]T[Dap][Dab][Dab][dL]V[Dab][Dab]T; lactam 4-C) | 2 µg/mL (≈ 1.73 µM) | 0.5 µg/mL (≈ 0.433 µM) | 1 µg/mL (≈ 0.865 µM) | 1 µg/mL (≈ 0.865 µM) | 2 µg/mL (≈ 1.73 µM) | 2 µg/mL (≈ 1.73 µM) | 0.5 µg/mL (≈ 0.433 µM) | 0.5 µg/mL (≈ 0.433 µM) | 0.5 µg/mL (≈ 0.433 µM) |
| CCCCCCCCCC(=O)N[C@@H](CCN)C(=O)N[C@H](C(=O)N[C@@H](CCN)C(=O)N[C@H]1CCNC(=O)[C@H]([C@@H](C)O)NC(=O)[C@H](CCN)NC(=O)[C@H](CCN)NC(=O)[C@H](C)NC(=O)[C@@H](CC(C)C)NC(=O)[C@H](CCN)NC1=O)[C@@H](C)O [Compound 40] (Decanoyl-[Dab]T[Dab][Dab][Dab][dL]A[Dab][Dab]T; lactam 4-C) | 0.5 µg/mL (≈ 0.438 µM) | 0.5 µg/mL (≈ 0.438 µM) | 0.5 µg/mL (≈ 0.438 µM) | 0.5 µg/mL (≈ 0.438 µM) | 2 µg/mL (≈ 1.75 µM) | 4 µg/mL (≈ 3.5 µM) | 0.25 µg/mL (≈ 0.219 µM) | 0.25 µg/mL (≈ 0.219 µM) | 0.25 µg/mL (≈ 0.219 µM) |
| CCCCCCCCCC(=O)N[C@@H](CCN)C(=O)N[C@H](C(=O)N[C@@H](CCN)C(=O)N[C@H]1CCNC(=O)[C@H]([C@@H](C)O)NC(=O)[C@H](CCN)NC(=O)[C@H](CCN)NC(=O)[C@H](C(C)C)NC(=O)[C@@H](CC(C)C)NC(=O)[C@H](CCN)NC1=O)[C@@H](C)O [Compound 41] (Decanoyl-[Dab]T[Dab][Dab][Dab][dL]V[Dab][Dab]T; lactam 4-C) | 1 µg/mL (≈ 0.855 µM) | 1 µg/mL (≈ 0.855 µM) | 0.5 µg/mL (≈ 0.428 µM) | 1 µg/mL (≈ 0.855 µM) | 4 µg/mL (≈ 3.42 µM) | 2 µg/mL (≈ 1.71 µM) | 1 µg/mL (≈ 0.855 µM) | 0.5 µg/mL (≈ 0.428 µM) | 0.5 µg/mL (≈ 0.428 µM) |
